Holding throughout (assay type): functional
Experiment [1] is filed under the species Mus musculus. Description: Animal body weight was evaluated in Swiss white mice before treatment with the compound.
For experiment [2], the system named is Mus musculus. In words: Animal body weight was evaluated in Swiss white mice treated with 20 mg/kg/day of ip administration for 14 days. To be noted: route intraperitoneal.
For experiment [3], the species on record is Mus musculus. Description: Plasma cholesterol level was evaluated in Swiss white mice before treatment with the compound.
Experiment [4] deals with Mus musculus. Description: Plasma cholesterol level was evaluated in Swiss white mice treated with 20 mg/kg/day of ip administration for 14 days. As to conditions: route intraperitoneal.
In experiment [5] the test system is Mus musculus. In words: Plasma triglyceride level was evaluated in Swiss white mice treated with 20 mg/kg/day of ip administration for 14 days. As to conditions: route intraperitoneal.
Experiment [6] is filed under the species Mus musculus. In words: Plasma triglyceride level was evaluated in Swiss white mice before treatment with the compound.

Turning to `O=C(O)c1ccccc1C(=O)Nn1cnnc1`, the values for the Body weight in the experiment listed under Mus musculus [1] and with Mus musculus [2] were 35 g and 39 g, respectively. The Cholesterol is 2.46 mM in the experiment filed under Mus musculus [3] and 2.95 mM with Mus musculus [4]. Also, the Triglycerides in the experiment with Mus musculus [5] is less than 1.49 mM; in the experiment listed under Mus musculus [6], 1.12 mM.

Consider `O=C(O)c1ccccc1C(=O)Nc1ccc(F)cc1`, for which the Body weight in the experiment listed under Mus musculus [1] is 20 g; in the experiment on Mus musculus [2], less than 25 g. Moreover, the Cholesterol in the experiment listed under Mus musculus [3] is 2.66 mM; with Mus musculus [4] it was less than 3.17 mM. In addition, the Triglycerides is less than 1.48 mM with Mus musculus [5] and 1.26 mM in the experiment listed under Mus musculus [6].

`O=C(O)c1ccccc1C(=O)Nc1cccc(Cl)c1`: the Body weight is recorded as 24 g in the experiment filed under Mus musculus [1] and less than 28 g in the experiment with Mus musculus [2]. For the same compound, the values for the Cholesterol in the experiment listed under Mus musculus [3] and in the experiment on Mus musculus [4] were 2.17 mM and less than 2.48 mM, respectively. The Triglycerides with Mus musculus [5] was less than 1.28 mM; in the experiment filed under Mus musculus [6], 1.04 mM.

In the case of `O=C(O)c1ccccc1C(=O)Nc1ccccc1F`, the Body weight in the experiment filed under Mus musculus [1] was 26 g; in the experiment with Mus musculus [2], less than 30 g. Further, the Cholesterol in the experiment listed under Mus musculus [3] was 3.06 mM; in the experiment with Mus musculus [4], less than 3.4 mM. Further, the Triglycerides was less than 1.23 mM in the experiment on Mus musculus [5] and 0.94 mM in the experiment filed under Mus musculus [6].

In the case of `O=C(O)c1ccccc1C(=O)Nc1ccccc1Cl`, the values for the Body weight in the experiment listed under Mus musculus [1] and in the experiment with Mus musculus [2] were 26 g and less than 29 g, respectively. For the same compound, the Cholesterol in the experiment listed under Mus musculus [3] was 2.11 mM; with Mus musculus [4], less than 2.43 mM. In addition, the Triglycerides with Mus musculus [5] is less than 1.32 mM; in the experiment listed under Mus musculus [6] it was 1.06 mM.

In the case of `O=C(O)c1ccccc1C(=O)Nc1ccccc1`, the Body weight in the experiment listed under Mus musculus [1] was 28 g; with Mus musculus [2], 29 g. The results for the Cholesterol in the experiment filed under Mus musculus [3] and with Mus musculus [4] were 2.71 mM and less than 3.06 mM, respectively. In addition, the Triglycerides is less than 1.3 mM with Mus musculus [5] and 1.07 mM in the experiment listed under Mus musculus [6].

With `O=C(O)c1ccccc1C(=O)Nc1nc[nH]n1`, the Body weight in the experiment filed under Mus musculus [1] is listed as 35 g; in the experiment with Mus musculus [2], 38 g. For the same compound, the Cholesterol in the experiment filed under Mus musculus [3] was found to be 2.45 mM; with Mus musculus [4], 2.78 mM. Moreover, the results for the Triglycerides in the experiment with Mus musculus [5] and in the experiment listed under Mus musculus [6] were less than 1.58 mM and 1.14 mM, respectively.

`O=C(O)c1ccccc1C(=O)Nc1ccc(Cl)cc1`: the figures for the Body weight in the experiment listed under Mus musculus [1] and in the experiment on Mus musculus [2] were 25 g and 28 g, respectively. Moreover, the Cholesterol in the experiment filed under Mus musculus [3] is 2.3 mM; with Mus musculus [4], less than 2.51 mM. The figures for the Triglycerides with Mus musculus [5] and in the experiment listed under Mus musculus [6] were less than 1.06 mM and 0.86 mM, respectively.

For the compound `O=C(O)c1ccccc1C(=O)Nc1cccc(F)c1`, the Body weight in the experiment listed under Mus musculus [1] was 26 g; in the experiment on Mus musculus [2], less than 29 g. The Cholesterol is 3.02 mM in the experiment filed under Mus musculus [3] and less than 3.28 mM in the experiment with Mus musculus [4]. The Triglycerides in the experiment with Mus musculus [5] was less than 1.35 mM; in the experiment listed under Mus musculus [6] it was 1.01 mM.

Values taken from ChEMBL document CHEMBL1133800, “Microwave assisted synthesis of N-arylphthalamic acids with hyperlipidemic activity” (2001).
